Measurements: patent US7094760B2, “Peptides for treatment of inflammation and shock” (Salpep Biotechnology, Inc., priority 1996, dated 2006)
Ends that are not written are not given here.

Columns and labels:
[1] = test system: jejunal segments from ovalbumin-sensitized rats; test: antigen-induced jejunal segment contraction, URE/OA ratio, Example 7; parameters: species or system rat; details: 10 μg peptide; for URE/OA: 100 ng OA, 20 μg urecholine
Procedure: Animals and Tissue Preparation: Male Sprague-Dawley rats were sensitized to egg albumin (ovalbumin, OA) with 50 ng of Pertussis bordetella toxin as an adjuvant. Four to six weeks after sensitization, the rats were anaethetised with sodium pentobarbital and the jejunum was removed. Two cm sections of the jejunum were mounted in tissue baths under 0.75 g of isometric tension, and the tissues were allowed to equilibrate for 20 min prior to beginning the experiment.
10 μg of SGP-T or one of its analogues or fragments was added to a bath, while control tissues received the saline vehicle. Following a 10 min incubation, 100 ng of OA prepared in 0.9% saline was added. After the tissue had reached a maximal contractile response, the tissues were washed extensively to remove OA and peptide and, after the tissues had established baseline tension, 20 μg of urecholine (URE; a cholinergic-muscarinic receptor agonist) was added to determine the maximal contractile response of the tissue. The tissues were then removed from the bath, cleared of all underlying mucosa and the weight of the remaining muscle was determined.
Data Analysis: The tension (measured in grams) per gram tissue weight generated by each tissue in response to OA and URE was calculated. To normalize for differences in the ability of each tissue segment to contract in response to the muscle stimulants, the contractile response to […]. Thus, a measure of the antigen-induced contraction was expressed as the URE/OA ratio.
The data was analyzed using the one-way analysis of variance (ANOVA) and differences between groups was determined using the Student t-test for unpaired samples. The results are shown in FIGS. 7 and 8 and Tables 3 and 4.

[2] = test system: isolated jejunal segments from egg albumin-sensitised rats; test: antigen-induced contraction of isolated jejunal segments, Examples 3 and 6; parameters: species or system rat; key to Biological Activity = inhibition of antigen-induced jejunal contraction by test peptide: +++ = highest inhibition (~60%); ++ = moderate inhibition (~40%); + = lowest inhibition (~20%); − = no inhibition
Procedure: SGP-T, at doses as low as 6.8×10^−7M, reduced antigen induced contractions of these isolated intestinal tissues by 60% (data not shown).
Analogues and fragments of SGP-T were tested for their ability to inhibit antigen (egg albumin)-induced intestinal contractions, using isolated jejunal segments from egg albumin-sensitised rats, as described in Example 3.

[3] = test system: LPS (Salmonella typhosa)-induced hypotension in sialadenectomized rats; test: endotoxin (LPS)-induced hypotension, sialadenectomized rats; format: in vivo, rat
Procedure: (§1) The animal model of endotoxic shock used involves intravenous injection of endotoxin (3.5 mg/kg of lipopolysaccharide (LPS) from Salmonella typhosa) into pentobarbital-anaesthetized Sprague-Dawley rats, to produce a fall in mean arterial blood pressure within 3 to 5 minutes. The endotoxin was injected slowly over 1 min. via the jugular vein, and mean arterial blood pressure in mm mercury (MABP) was monitored continuously for 60 min, with the average blood pressure being calculated at 15, 30, 45 and 60 min. Studies were performed on unoperated rats and rats with their submandibular glands removed (sialadenectomized).
(§2) The results shown in Table 1 are the averages of three different experiments using the protocol defined above. The data shown represent the average decrease in MABP (dec MABP) and the % Decrease in MABP over the 60 minutes following LPS administration. SGP-S (100μg/kg) and SGP-T (100 μg/kg) were administered 90 min. before LPS. […] Neither SGP-T nor SGP-S, when given prior to the LPS challenge, had appreciable effects on MABP.
(§3) The dose-response relationship of the inhibitory effect of SGP-T and SGP-S on endotoxin-induced hypotension was also examined and the results are shown in FIG. 1.

[4] = test system: LPS (Salmonella typhosa)-induced hypotension in unoperated rats; test: endotoxin (LPS)-induced hypotension, unoperated rats; format: in vivo, rat
Procedure: as §1, §2
Overall, SGP-T reduced by 60% the decrease and the percent decrease in MABP induced by endotoxin, relative to pre-LPS values. SGP-S, on the other hand, had no effect on the shock induced by endotoxin in unoperated rats.
as §3

[5] = peptide 100 μg/kg 90 min before LPS 3.5 mg/kg iv

## FE-Citrulline
[1]
  anti-anaphylactic activity in jejunal assay, in words: loss of biological activity
[1]; Table 4, saline 5.7 ± 1.0
  URE/OA: 5.0 ± 1.1

## TDIAEGG [T11, alanine analogue of SGP-T]
[2]
  Biological Activity = inhibition of antigen-induced jejunal contraction by test peptide: −
[1]; Table 3, saline 4.0 ± 0.4
  URE/OA: 5.2 ± 1.2

## FE-Sarcosine
[1]; Table 4, saline 5.7 ± 1.0
  URE/OA: 10.0 ± 1.6

## FEG
[2]
  Biological Activity = inhibition of antigen-induced jejunal contraction by test peptide: ++ (++ = moderate inhibition (~40%))

## FE-Proline
[1]
  anti-anaphylactic activity in jejunal assay, in words: loss of biological activity
[1]; Table 4, saline 5.7 ± 1.0
  URE/OA: 6.2 ± 1.3

## NH2-Ser-Gly-Glu-Gly-Val-Arg-COOH (H-SGEGVR-OH) [SGP-S, submandibular gland peptide S, SGEGVR]
[3]
  effect on drop in MABP after LPS: significantly reduced the drop in MABP
[3]; [5]
  % Dec = percent decrease in MABP relative to MABPbef: −32.3 ± 3.9 %
  MABPaft = average MABP for 60 mins after LPS injection: 81.6 ± 5.8 mm Hg
  dec MABP = decrease in MABP after LPS relative to MABPbef: −37.6 ± 4.4 mm Hg
[4]
  effect on drop in MABP / shock induced by endotoxin: no effect
[4]; [5]
  % Dec = percent decrease in MABP relative to MABPbef: −22.9 ± 1.3%
  MABPaft = average MABP for 60 mins after LPS injection: 95.2 ± 4.3 mm Hg
  dec MABP = decrease in MABP after LPS relative to MABPbef: −28.1 ± 1.8 mm Hg

## TDIFAGG [T9, alanine analogue of SGP-T]
[2]
  Biological Activity = inhibition of antigen-induced jejunal contraction by test peptide: −
[1]; Table 3, saline 4.0 ± 0.4
  URE/OA: 7.2 ± 1.1

## TAIFEGG [T7, alanine analogue of SGP-T]
[2]
  Biological Activity = inhibition of antigen-induced jejunal contraction by test peptide: +++ (+++ = highest inhibition (~60%))
[1]
  anti-anaphylactic activity in jejunal assay, in words: minimal effect on prevention of anaphylaxis
[1]; Table 3, saline 4.0 ± 0.4
  URE/OA: 12.3 ± 2.2

## ADIFEGG [T3, alanine analogue of SGP-T]
[2]
  Biological Activity = inhibition of antigen-induced jejunal contraction by test peptide: −
[1]; Table 3, saline 4.0 ± 0.4
  URE/OA: 3.6 ± 0.9

## STDIFEGG [T2, analogue of SGP-T]
[2]
  Biological Activity = inhibition of antigen-induced jejunal contraction by test peptide: −
[1]; Table 3, saline 4.0 ± 0.4
  URE/OA: 3.58 ± 1.07

## TDIFE [T4]
[2]
  Biological Activity = inhibition of antigen-induced jejunal contraction by test peptide: −
[1]
  anti-anaphylactic activity in jejunal assay, in words: abolished anti-anaphylactic activity
[1]; Table 3, saline 4.0 ± 0.4
  URE/OA: 1.7 ± 0.3

## TDIFEGG-NH2 [T5, SGP-T with amidated terminal glycine]
[2]
  Biological Activity = inhibition of antigen-induced jejunal contraction by test peptide: −
[1]
  anti-anaphylactic activity in jejunal assay, in words: abolished anti-anaphylactic activity
[1]; Table 3, saline 4.0 ± 0.4
  URE/OA: 4.3 ± 0.7

## TDAFEGG [T10, alanine analogue of SGP-T]
[2]
  Biological Activity = inhibition of antigen-induced jejunal contraction by test peptide: + (+ = lowest inhibition (~20%))
[1]
  anti-anaphylactic activity in jejunal assay, in words: minimal effect on prevention of anaphylaxis
[1]; Table 3, saline 4.0 ± 0.4
  URE/OA: 8.3 ± 1.9

## FEGGG [T6]
[2]
  Biological Activity = inhibition of antigen-induced jejunal contraction by test peptide: ++ (++ = moderate inhibition (~40%))
[1]
  anti-anaphylactic activity in jejunal assay, in words: no effect on activity
[1]; Table 3, saline 4.0 ± 0.4
  URE/OA: 10.7 ± 2.0
